Laboratory results as given in ChEMBL document CHEMBL4024755, “Pharmacophore Hybridization To Discover Novel Topoisomerase II Poisons with Promising Antiproliferative Activity” (J Med Chem, 2018).
pIC50: −log10 of the molar value. Calls of active or inactive are those of the source. No cut-off for these calls is given here.

Tests used:
[1] = test system: A549; assay: Antiproliferative activity against human A549 cells after 72 hrs by MTT assay; format: functional, cell-based; settings: A549, 72 h
[2] = test system: MCF7; assay: Antiproliferative activity against human MCF7 cells after 72 hrs by MTT assay; format: functional, cell-based; settings: MCF7, 72 h
[3] = species on record: Bos taurus; assay: Binding affinity to calf thymus DNA at 50 uM by UV-spectrophotometric analysis
[4] = test system: DU-145; assay: Antiproliferative activity against human DU145 cells after 72 hrs by MTT assay; format: functional, cell-based; settings: DU-145, 72 h
[5] = test system: HeLa; assay: Antiproliferative activity against human HeLa cells after 72 hrs by MTT assay; format: functional, cell-based
[6] = molecular target: T1, DNA topoisomerase 2-alpha (Homo sapiens, UniProt P11388); assay: Inhibition of human topoisomerase 2alpha expressed in baculovirus-infected insect cells assessed as reduction in pBR322 supercoiled DNA relaxation after 60 mins by ethidium bromide staining based agarose gel electrophoresis
[7] = molecular target: T1, DNA topoisomerase 2-alpha; assay: Poison activity at human Topo2alpha expressed in baculovirus-infected insect cells using pBR322 as substrate assessed as concentration required to observe the same amount of topo2/DNA cleavage complex generated by etoposide at 20 uM after 6 minutes by ethidium bromide staining based agarose gel electrophoresis
[8] = species on record: Bos taurus; assay: Binding affinity to calf thymus DNA in absence of topo2 enzyme by circular dichroism titration analysis
[9] = molecular target: T1, DNA topoisomerase 2-alpha; assay: Poison activity at human Topo2alpha expressed in baculovirus-infected insect cells using pBR322 as substrate assessed as topo2/DNA cleavage complex generation after 6 minutes by ethidium bromide staining based agarose gel electrophoresis
[10] = test system: HeLa; assay: Inhibition of human of DNA topoisomerase 2 in human HeLa cells assessed as induction of H2AX phosphorylation at 10 uM after 90 mins by NuPAGE based electrophoresis; format: cell-based

T1 sequence (P11388 whole entry): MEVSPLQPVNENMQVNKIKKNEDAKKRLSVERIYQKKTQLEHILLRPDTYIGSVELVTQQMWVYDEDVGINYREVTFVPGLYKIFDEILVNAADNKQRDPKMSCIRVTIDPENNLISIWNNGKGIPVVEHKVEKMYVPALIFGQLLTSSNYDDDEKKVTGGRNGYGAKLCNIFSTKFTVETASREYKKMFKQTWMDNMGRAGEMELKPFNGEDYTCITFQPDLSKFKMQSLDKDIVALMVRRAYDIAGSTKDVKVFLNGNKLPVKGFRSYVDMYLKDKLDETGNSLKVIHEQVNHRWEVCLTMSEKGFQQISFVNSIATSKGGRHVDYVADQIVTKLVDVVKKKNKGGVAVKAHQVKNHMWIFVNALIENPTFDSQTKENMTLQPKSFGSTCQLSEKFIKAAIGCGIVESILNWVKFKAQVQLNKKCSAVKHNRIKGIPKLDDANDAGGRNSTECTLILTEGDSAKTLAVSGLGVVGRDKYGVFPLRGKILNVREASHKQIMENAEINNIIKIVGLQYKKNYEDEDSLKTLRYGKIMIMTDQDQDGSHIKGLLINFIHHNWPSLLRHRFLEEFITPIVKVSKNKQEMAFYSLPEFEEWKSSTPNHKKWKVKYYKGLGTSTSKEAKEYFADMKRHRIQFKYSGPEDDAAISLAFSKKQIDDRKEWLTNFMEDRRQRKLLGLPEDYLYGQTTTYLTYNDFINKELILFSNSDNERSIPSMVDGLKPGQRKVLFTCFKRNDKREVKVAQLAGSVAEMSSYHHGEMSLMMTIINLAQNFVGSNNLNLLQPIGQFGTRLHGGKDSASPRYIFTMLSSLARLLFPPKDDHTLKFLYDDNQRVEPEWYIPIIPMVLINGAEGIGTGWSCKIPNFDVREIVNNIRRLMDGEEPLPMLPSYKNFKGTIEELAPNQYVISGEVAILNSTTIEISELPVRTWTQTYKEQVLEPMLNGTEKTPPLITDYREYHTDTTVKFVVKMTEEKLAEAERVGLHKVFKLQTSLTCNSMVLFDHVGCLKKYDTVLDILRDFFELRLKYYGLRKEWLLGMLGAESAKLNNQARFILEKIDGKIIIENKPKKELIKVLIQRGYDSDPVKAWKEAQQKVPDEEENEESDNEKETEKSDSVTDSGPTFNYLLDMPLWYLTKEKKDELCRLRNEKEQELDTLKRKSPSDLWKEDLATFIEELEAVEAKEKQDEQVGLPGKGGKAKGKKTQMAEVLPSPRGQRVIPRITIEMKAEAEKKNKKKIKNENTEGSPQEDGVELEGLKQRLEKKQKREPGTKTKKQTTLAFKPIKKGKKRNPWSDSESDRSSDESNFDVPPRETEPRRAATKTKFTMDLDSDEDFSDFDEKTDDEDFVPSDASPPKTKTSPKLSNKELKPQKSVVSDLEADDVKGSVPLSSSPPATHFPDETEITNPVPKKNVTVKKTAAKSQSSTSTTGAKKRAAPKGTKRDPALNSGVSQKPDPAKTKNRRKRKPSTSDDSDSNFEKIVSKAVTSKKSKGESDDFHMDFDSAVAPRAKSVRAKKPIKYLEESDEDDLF

SMILES | pIC50 [1] | pIC50 [2] | Activity [3] | pIC50 [4] | pIC50 [5] | pIC50 [6] | Activity [7] | Activity [8] | Activity [9] | inhibition [10]
COc1cc([C@@H]2c3cc4c(cc3[C@@H](O[C@@H]3O[C@@H]5CO[C@@H](C)O[C@H]5[C@H](O)[C@H]3O)[C@H]3COC(=O)[C@H]23)OCO4)cc(OC)c1O [ETOPOSIDE] | 5.89 | 4.98 | inactive | 6.00 | 5.62 | – | – | – | – | –
COc1cccc(NC(=O)c2c(O)n(-c3ccccc3)c(=S)n(-c3ccccc3)c2=O)c1 | 5.16 | 4.85 | inactive | 4.90 | 5.07 | 4.52 | 100 µM | inactive | – | –
O=C(Nc1cccc(O)c1)c1c(O)n(-c2ccccc2)c(=S)n(-c2ccccc2)c1=O | 4.23 | 4.03 | inactive | 4.30 | 4.41 | 3.70 | – | inactive | inactive | –
COc1cc(NC(=O)c2c(O)n(-c3ccccc3)c(=S)n(-c3ccccc3)c2=O)cc(OC)c1O | 4.76 | 4.27 | inactive | 4.57 | 4.74 | 3.92 | 200 µM | inactive | – | –
O=C(Nc1ccc(O)cc1)c1c(O)n(-c2ccccc2)c(=S)n(-c2ccccc2)c1=O | 4.43 | 4.18 | inactive | 4.37 | 4.37 | 3.82 | 200 µM | inactive | – | –
O=C(Nc1ccccc1)c1c(O)n(-c2ccccc2)c(=S)n(-c2ccccc2)c1=O | 5.04 | 4.87 | inactive | 4.77 | 4.97 | 5.30 | 200 µM | inactive | – | Active
O=C1NC(=S)NC(=O)C1C(=O)Nc1ccccc1 [MERBARONE] | 4.40 | 4.08 | inactive | 4.72 | 4.21 | 3.92 | – | – | inactive | –
